For data set [1], the system named is Blumeria graminis f.sp. hordei. In words: In vivo preventive test on Blumeria graminis (barley). The settings on record: 500 ppm of active ingredient, evaluated 7 days after inoculation. An excerpt:
(§1) To test for preventive activity, young plants are sprayed with the preparation of active compound or active compound combination at the stated rate of application.

For the next data set, the system named is Sphaerotheca fuliginea. In words: In vivo preventive test on Sphaerotheca fuliginea (cucumber). The settings on record: 500 ppm of active ingredient, evaluated 7 days after inoculation. An excerpt: One day after this treatment, the plants are inoculated with an aqueous spore suspension of Sphaerotheca fuliginea.
The test system of a further data set is Septoria tritici. Kind of data set: In vivo preventive test on Septoria tritici (wheat). The settings on record: 500 ppm of active ingredient, evaluated 21 days after inoculation.
Source text: as §1

Another data set deals with aflatoxines production. In words: microbe, parasite or virus in culture. The settings on record: 50 μM. Format: cell-based, Aspergillus parasiticus.
The test system of data set [2] is Fusarium nivale (var. majus). Kind of data set: In vivo curative test on Fusarium nivale (wheat). The settings on record: 500 ppm of active ingredient, evaluated 5 days after inoculation.
The subject of a further data set is Pyrenophora teres. Kind of data set: In vivo preventive test on Pyrenophora teres (barley). The settings on record: 500 ppm of active ingredient, evaluated 7-9 days after inoculation. The text has this: One day after this treatment, the plants are inoculated with an aqueous spore suspension of Pyrenophora teres.
The next data set deals with Venturia inaequalis. Kind of data set: In vivo preventive test on Venturia inaequalis (apple scab). The settings on record: 100 ppm of active ingredient, evaluated 10 days after inoculation.
Another data set deals with Fusarium graminearum. Kind of data set: microbe, parasite or virus in culture. Format: cell-based. The settings on record: 50 μM.
In a further data set the test system is Botrytis cinerea. In words: In vivo preventive test on Botrytis cinerea (beans). The text has this: To test for preventive activity, young plants are sprayed with the preparation of active compound. After the spray coating has dried on, 2 small pieces of agar covered with growth of Botrytis cinerea are placed on each leaf.
Data set [3] is described as follows: logP by HPLC on reversed-phase column (C 18), EEC Directive 79/831 Annex V.A8. The data set is classed as physicochemical. The method, then:
In table 1, the logP values were determined in accordance with EEC Directive 79/831 Annex V.A8 by HPLC (High Performance Liquid Chromatography) on a reversed-phase column (C 18), using the method described below: Temperature: 40° C.; […]

A further data set deals with Alternaria solani. In words: In vivo preventive test on Alternaria solani (tomato). The settings on record: 500 ppm of active ingredient, evaluated 7 days after inoculation. An excerpt: One day after this treatment, the plants are inoculated with an aqueous spore suspension of Alternaria solani.
Another data set concerns Leptosphaeria nodorum. In words: In vivo preventive test on Leptosphaeria nodorum (wheat). The settings on record: 500 ppm of active ingredient, evaluated 7-9 days after inoculation. An excerpt: One day after this treatment, the plants are inoculated with an aqueous spore suspension of Leptosphaeria nodorum.
For a further data set, the system named is Uromyces appendiculatus. Kind of data set: In vivo preventive test on Uromyces appendiculatus (beans). The settings on record: 100 ppm of active ingredient, evaluated 10 days after inoculation.
Data set [4] relates to Fusarium nivale (var. majus). In words: In vivo preventive test on Fusarium nivale (wheat). The settings on record: 500 ppm of active ingredient, evaluated 5 days after inoculation.
Source text: as §1

A further data set has as its system Puccinia triticina. In words: In vivo preventive test on Puccinia triticina (wheat). The settings on record: evaluated 8 days after inoculation; for Efficacy: dose 500 ppm of active ingredient.
A further data set concerns Phakopsora pachyrhizi. Kind of data set: In vivo protective test on Phakopsora pachyrhizi (soybeans). The settings on record: dose 250 ppm of active ingredient, evaluated 11 days after inoculation.
[5] abbreviates: preventive, beans, 100 ppm of active ingredient, lesion size 2 days after inoculation.

“And” between values parts separate entries of the source, which are not always exact repeats. Equal entries are not always repeated.

Take `COC(CNC(=O)c1c(C(F)F)nn(C)c1F)c1ccc(Cl)cc1Cl` (stereo not shown) [Example 75]: the Efficacy in data set [1] came out at 100%; in the data set on Sphaerotheca fuliginea, 80%; in the data set with Septoria tritici, 100%; in [2], 86%; in the data set with Pyrenophora teres, 100%; in the data set with Venturia inaequalis it was 95%. The same compound yielded an Efficacy in the data set with Botrytis cinerea (setting [5]) of 95%. Besides, in the data set on aflatoxines production, the “% Inhibition of Aflatoxin at 50 μM” value is 100%. Besides, in the data set with Fusarium graminearum, the “% Inhibition of fungal growth at 50 μM” value was found to be 100%. In data set [3], the logP amounted to 3.25.
For the compound `CCOC(c1ccc(Cl)cc1Cl)C(C)NC(=O)c1c(C(F)F)nn(C)c1Cl` (mixture of isomers) [Example 82], the Efficacy in the data set with Alternaria solani was 95%; in the data set with Sphaerotheca fuliginea it was 95%; with Septoria tritici, 100%; in data set [2], 100%; with Pyrenophora teres it was 100%; with Venturia inaequalis, 100%. Moreover, the Efficacy in the data set on Botrytis cinerea (setting [5]) is listed as 98%. Also, the “% Inhibition of Aflatoxin at 50 μM” value with aflatoxines production turned out to be 100%. Besides, the “% Inhibition of fungal growth at 50 μM” value in the data set with Fusarium graminearum is reported as 100%.
As to `Cn1nc(C(F)F)c(C(=O)N(C[Si](C)(C)c2ccc(Cl)cc2Cl)C2CC2)c1F` [Example 238], the Efficacy in [1] is given as 100%; with Alternaria solani, 94%; in the data set with Sphaerotheca fuliginea it was 98%; in the data set on Septoria tritici, 100%; in the data set with Pyrenophora teres it was 100%; in the data set with Venturia inaequalis, 100%. Also, the Efficacy came out at 100% with Leptosphaeria nodorum; 100% in the data set on Uromyces appendiculatus; 83% in data set [4]; 100% in the data set with Puccinia triticina; 85% in the data set with Phakopsora pachyrhizi; 100% in the data set on Botrytis cinerea (setting [5]). In the data set on aflatoxines production, the “% Inhibition of Aflatoxin at 50 μM” value amounted to 100%. In the data set with Fusarium graminearum, the “% Inhibition of fungal growth at 50 μM” value turned out to be 100%. In data set [3], this compound registered a logP of 4.78.
Take `CC(Cc1ccc(Cl)cc1Cl)NC(=S)c1c(C(F)F)nn(C)c1F` (stereo not shown) [Example 70]: the Efficacy in data set [1] is listed as 100%; in the data set with Alternaria solani it was 95%; in the data set on Sphaerotheca fuliginea it was 98%; in [2], 92%; with Pyrenophora teres, 100%; in the data set on Venturia inaequalis it was 100%. Also, the Efficacy in the data set with Leptosphaeria nodorum was 78%; in the data set with Uromyces appendiculatus, 75%; in the data set on Botrytis cinerea (setting [5]), 100%. For the same compound, the “% Inhibition of Aflatoxin at 50 μM” value with aflatoxines production came to 100%. For the same compound, the “% Inhibition of fungal growth at 50 μM” value in the data set on Fusarium graminearum was found to be 100%. Moreover, the logP in data set [3] came to 4.16.
For the compound `COC(c1cc(Cl)cc(Cl)c1)C(C)NC(=O)c1c(C(F)F)nn(C)c1Cl` (mixture of isomers) [Example 108], the Efficacy was 90% with Alternaria solani; 100% in the data set on Septoria tritici; 100% in data set [2]; 100% in the data set with Pyrenophora teres; 100% in the data set with Venturia inaequalis; 100% with Uromyces appendiculatus. For the same compound, the Efficacy in the data set on Puccinia triticina was determined as 100%. For the same compound, the “% Inhibition of Aflatoxin at 50 μM” value with aflatoxines production was determined as 100%. In the data set with Fusarium graminearum, the “% Inhibition of fungal growth at 50 μM” value worked out at 100%.
`Cn1nc(C(F)F)c(C(=O)N(C2CC2)C2CCCC2c2ccc(Cl)cc2Cl)c1F` (stereo not shown) [Example 211]: the Efficacy (in [1]; in the data set on Alternaria solani; in the data set on Sphaerotheca fuliginea; with Septoria tritici; in the data set with Pyrenophora teres; in the data set on Venturia inaequalis) was 100% throughout. For the same compound, the Efficacy in the data set on Leptosphaeria nodorum was 95%; in the data set on Uromyces appendiculatus, 100%; in data set [4], 100%; with Puccinia triticina it was 100% and 98%; in the data set on Phakopsora pachyrhizi, 80%; in the data set with Botrytis cinerea (setting [5]), 100%. Also, the “% Inhibition of Aflatoxin at 50 μM” value in the data set on aflatoxines production is given as 100%. In addition, the “% Inhibition of fungal growth at 50 μM” value in the data set on Fusarium graminearum is on record as 100%. Also, the “Efficacy (protection)” value in the data set on Puccinia triticina (preventive, 500 ppm of active ingredient) was “greater than 95%”. Moreover, the logP in [3] turned out to be 4.67.
Regarding `Cn1nc(C(F)F)c(C(=O)N(C[Si](C)(C)c2cccc(Cl)c2)C2CC2)c1F` [Example 235], the Efficacy is 94% in [1]; 100% in the data set on Alternaria solani; 95% in the data set on Sphaerotheca fuliginea; 100% in the data set on Septoria tritici; 100% in the data set on Pyrenophora teres; 100% in the data set on Venturia inaequalis. The Efficacy in the data set with Leptosphaeria nodorum is listed as 100%; in the data set on Uromyces appendiculatus, 100%; in data set [4] it was 100%; in the data set on Puccinia triticina, 100%; in the data set on Phakopsora pachyrhizi, 100%; in the data set with Botrytis cinerea (setting [5]) it was 99%. Also, the “% Inhibition of Aflatoxin at 50 μM” value in the data set with aflatoxines production was 100%. For the same compound, in the data set with Fusarium graminearum, the “% Inhibition of fungal growth at 50 μM” value came out at 100%. The lipophilicity (logP) in data set [3] is 4.18.
`CCC(NC(=O)c1c(C(F)F)nn(C)c1Cl)C(OC)c1ccc(Cl)cc1Cl` (mixture of isomers) [Example 76]: the Efficacy was 100% in [1]; 95% in the data set with Alternaria solani; 93% with Sphaerotheca fuliginea; 100% in the data set on Septoria tritici; 86% in [2]; 100% in the data set on Pyrenophora teres. The Efficacy in the data set on Venturia inaequalis was 100%; with Botrytis cinerea (setting [5]), 72%. The “% Inhibition of Aflatoxin at 50 μM” value with aflatoxines production was 100%. For the same compound, in the data set with Fusarium graminearum, the “% Inhibition of fungal growth at 50 μM” value came out at 100%.
Take `CCOC(c1ccc(Cl)cc1Cl)C(C)NC(=O)c1c(C(F)F)nn(C)c1F` (mixture of isomers) [Example 83]: the Efficacy (in [1]; with Alternaria solani; with Sphaerotheca fuliginea; in the data set with Septoria tritici; in [2]; in the data set on Pyrenophora teres) was 100% throughout. Moreover, the Efficacy in the data set on Venturia inaequalis was 100%; in the data set with Leptosphaeria nodorum it was 90%; with Botrytis cinerea (setting [5]), 98%. The “% Inhibition of Aflatoxin at 50 μM” value in the data set with aflatoxines production was determined as 100%. Also, the “% Inhibition of fungal growth at 50 μM” value with Fusarium graminearum is on record as 100%.
With `COC(c1cc(Cl)cc(Cl)c1)C(C)NC(=O)c1c(C(F)F)nn(C)c1F` (mixture of isomers) [Example 109], the Efficacy in [1] was determined as 100%; in the data set on Alternaria solani, 95%; in the data set with Sphaerotheca fuliginea, 85%; in the data set on Septoria tritici, 100%; in [2], 100%; with Pyrenophora teres, 100%. Besides, the Efficacy in the data set with Venturia inaequalis turned out to be 99%. In addition, the “% Inhibition of Aflatoxin at 50 μM” value in the data set on aflatoxines production is listed as 100%. Further, in the data set on Fusarium graminearum, the “% Inhibition of fungal growth at 50 μM” value is given as 100%.
As to `Cn1nc(C(F)F)c(C(=O)N(C[Si](C)(C)c2cc(Cl)cc(Cl)c2)C2CC2)c1F` [Example 242], the Efficacy (in [1]; in the data set on Alternaria solani; in the data set on Septoria tritici; in the data set on Pyrenophora teres; with Venturia inaequalis; in the data set with Leptosphaeria nodorum) was 100% throughout. For the same compound, the Efficacy turned out to be 100% in the data set with Uromyces appendiculatus; 83% in data set [4]; 100% in the data set with Puccinia triticina; 99% in the data set on Phakopsora pachyrhizi; 100% with Botrytis cinerea (dose 500 ppm of active ingredient, table K10); 100% in the data set with Botrytis cinerea (setting [5]). Also, the Efficacy result in the data set with Botrytis cinerea (preventive, beans, 500 ppm of active ingredient, lesion size 2 days after inoculation) is reported as “total protection”. Also, in the data set on aflatoxines production, the “% Inhibition of Aflatoxin at 50 μM” value is given as 100%. Moreover, in the data set with Fusarium graminearum, the “% Inhibition of fungal growth at 50 μM” value turned out to be 100%. Besides, the log partition coefficient (logP) in [3] turned out to be 4.78.
Take `CCC(NC(=O)c1c(C(F)F)nn(C)c1F)C(OC)c1ccc(Cl)cc1Cl` (stereo not shown) [Example 77]: the Efficacy came out at 100% in data set [1]; 100% in the data set with Alternaria solani; 95% with Sphaerotheca fuliginea; 100% in the data set on Septoria tritici; 100% in data set [2]; 80% with Pyrenophora teres. The figures for the Efficacy with Venturia inaequalis, in the data set with Leptosphaeria nodorum and in the data set with Botrytis cinerea (setting [5]) were 100%, 95% and 97%, respectively. In the data set with aflatoxines production, the “% Inhibition of Aflatoxin at 50 μM” value was 100%. Further, the “% Inhibition of fungal growth at 50 μM” value in the data set on Fusarium graminearum was found to be 100%. In [3], the logP was determined as 3.94.
On to `COC(CNC(=O)c1c(C(F)F)nn(C)c1Cl)c1ccc(Cl)cc1Cl` (stereo not shown) [Example 74], for which the Efficacy worked out at 100% in data set [1]; 75% with Sphaerotheca fuliginea; 100% in the data set on Septoria tritici; 100% in [2]; 95% in the data set with Pyrenophora teres; 100% in the data set on Venturia inaequalis. This compound displayed an Efficacy in the data set on Botrytis cinerea (setting [5]) of 93%. In addition, the “% Inhibition of Aflatoxin at 50 μM” value in the data set with aflatoxines production amounted to 100%. The “% Inhibition of fungal growth at 50 μM” value in the data set on Fusarium graminearum is 100%. The compound further displayed a logP in data set [3] of 3.48.

A word on the logP: it is a log measure of how a compound divides between an organic and an aqueous phase. A high value points to a more lipophilic compound.
